Source: ChEMBL document CHEMBL1201862, “PubChem BioAssay data set” (2004)
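Cells were grown in 96-well plates and exposed to each compound for 48 hours at five concentrations; endpoints were interpolated linearly between bracketing concentrations, or set to the highest concentration if not reached. GI50 is the concentration that inhibits growth by half.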 The source made the active and inactive calls. Rule as the data show it: active = GI50 up to about 1.1 µM and inactive = higher.

How the values were obtained:
Experiment in all cases: NCI anticancer screen, dose series, 48 h
786-0 = tested on: 786-0
ACHN = tested on: ACHN
CCRF-CEM = tested on: CCRF-CEM
HCC 2998 = tested on: HCC 2998
HCT-116 = tested on: HCT-116
HCT-15 = tested on: HCT-15
HT-29 = tested on: HT-29
IGROV-1 = tested on: IGROV-1
MOLT-4 = tested on: MOLT-4
NCI-H226 = tested on: NCI-H226
RPMI-8226 = tested on: RPMI-8226
RXF 393 = tested on: RXF 393
SR = tested on: SR
TK-10 = tested on: TK-10
UACC-257 = tested on: UACC-257

Row | SMILES | GI50 (786-0) | GI50 (ACHN) | GI50 (CCRF-CEM) | GI50 (HCC 2998) | GI50 (HCT-116) | GI50 (HCT-15) | GI50 (HT-29) | GI50 (IGROV-1) | GI50 (MOLT-4) | GI50 (NCI-H226) | GI50 (RPMI-8226) | GI50 (RXF 393) | GI50 (SR) | GI50 (TK-10) | GI50 (UACC-257)
1 | O=C1CC2C=CC1C2CO (stereo not given) | > 100 µM (inactive) | > 100 µM (inactive) | > 100 µM (inactive) | > 100 µM (inactive) | > 100 µM (inactive) | > 100 µM | > 100 µM (inactive) | > 100 µM (inactive) | > 100 µM (inactive) | > 100 µM (inactive) | > 100 µM (inactive) | > 100 µM (inactive) | > 100 µM (inactive) | > 100 µM (inactive) | > 100 µM (inactive)
2 | O=S1(=O)CCCS(=O)(=O)C(c2ccccc2)=C1c1ccccc1 | 66.4 µM (inactive) | 54 µM (inactive) | 32.1 µM (inactive) | 18.5 µM (inactive) | 30.5 µM (inactive) | 27.7 µM | 64 µM (inactive) | 70.5 µM (inactive) | 36.2 µM (inactive) | 56.5 µM (inactive) | 41 µM (inactive) | – | 31.6 µM (inactive) | > 100 µM (inactive) | 69.7 µM (inactive)
3 | O=[PH](O)c1cccnc1 | > 100 µM (inactive) | > 100 µM (inactive) | > 100 µM (inactive) | > 100 µM (inactive) | > 100 µM (inactive) | > 100 µM | > 100 µM (inactive) | > 100 µM (inactive) | > 100 µM (inactive) | > 100 µM (inactive) | > 100 µM (inactive) | > 100 µM (inactive) | > 100 µM (inactive) | > 100 µM (inactive) | > 100 µM (inactive)
4 | O=C(CNC(=O)OCc1ccccc1)Oc1ccccc1 | > 100 µM (inactive) | > 100 µM (inactive) | > 100 µM (inactive) | > 100 µM (inactive) | > 100 µM (inactive) | > 100 µM | > 100 µM (inactive) | > 100 µM (inactive) | > 100 µM (inactive) | > 100 µM (inactive) | > 100 µM (inactive) | > 100 µM (inactive) | > 100 µM (inactive) | > 100 µM (inactive) | > 100 µM (inactive)
5 | COc1ccc(-c2cc(O)c3cc4c(cc3n2)OCO4)cc1OC | > 100 µM (inactive) | > 100 µM (inactive) | > 100 µM (inactive) | > 100 µM (inactive) | > 100 µM (inactive) | > 100 µM | > 100 µM (inactive) | > 100 µM (inactive) | > 100 µM (inactive) | > 100 µM (inactive) | > 100 µM (inactive) | > 100 µM (inactive) | 45 µM (inactive) | > 100 µM (inactive) | –
6 | CC1=NN(C(=O)Cc2ccccc2)C(=O)/C1=C\c1cccc(O)c1 | > 100 µM (inactive) | > 100 µM (inactive) | > 100 µM (inactive) | > 100 µM (inactive) | > 100 µM (inactive) | > 100 µM | > 100 µM (inactive) | – | > 100 µM (inactive) | > 100 µM (inactive) | > 100 µM (inactive) | – | > 100 µM (inactive) | > 100 µM (inactive) | > 100 µM (inactive)
7 | Cc1nc2ccccc2c(=O)n1/N=C(\N=N\c1ccccc1)c1ccccc1Cl | 44.8 µM (inactive) | 33.3 µM (inactive) | 26.7 µM (inactive) | 38.2 µM (inactive) | > 10 µM (inactive) | 48.1 µM | 43.8 µM (inactive) | 39.9 µM (inactive) | 14.8 µM (inactive) | 14.5 µM (inactive) | 20.4 µM (inactive) | 21.6 µM (inactive) | – | 38.9 µM (inactive) | 75 µM (inactive)
8 | Cc1cc(Cl)ccc1N1C(=O)C(=O)C(c2nc3ccccc3s2)C(=O)C1=O | > 100 µM (inactive) | > 100 µM (inactive) | > 100 µM (inactive) | – | > 100 µM (inactive) | > 100 µM | > 100 µM (inactive) | > 100 µM (inactive) | > 100 µM (inactive) | > 100 µM (inactive) | > 100 µM (inactive) | – | > 100 µM (inactive) | > 100 µM (inactive) | > 100 µM (inactive)
9 | NC1=NN(c2ccccc2)C(=O)C1C(=O)C(=O)NC1C2CC3CC(C2)CC1C3 (stereo not given) | > 100 µM (inactive) | > 100 µM (inactive) | > 100 µM (inactive) | > 100 µM (inactive) | > 100 µM (inactive) | > 100 µM | > 100 µM (inactive) | > 100 µM (inactive) | > 100 µM (inactive) | > 100 µM (inactive) | – | > 100 µM (inactive) | > 100 µM (inactive) | > 100 µM (inactive) | > 100 µM (inactive)
10 | C/C(=N\NC(=O)CC(=O)N(C(=O)c1ccc(Cl)cc1)c1ccc(C)cc1)c1ccccc1O | 13.4 µM (inactive) | 45.6 µM (inactive) | 5.45 µM (inactive) | – | 62.2 µM (inactive) | 4.88 µM | 48.1 µM (inactive) | > 100 µM (inactive) | 5.79 µM (inactive) | 77.6 µM (inactive) | > 100 µM (inactive) | 18.3 µM (inactive) | – | 17.6 µM (inactive) | > 100 µM (inactive)
11 | Cn1c(=O)c(C(=O)NC(=O)OCc2ccccc2)cn(CCSCCOC(=O)NCCCCCCNC(=O)OCCSCCn2cc(C(=O)NC(=O)OCc3ccccc3)c(=O)n(C)c2=O)c1=O | 83.9 µM (inactive) | > 100 µM (inactive) | > 100 µM (inactive) | > 100 µM (inactive) | > 100 µM (inactive) | > 100 µM | – | > 100 µM (inactive) | > 100 µM (inactive) | > 100 µM (inactive) | > 100 µM (inactive) | 33.7 µM (inactive) | – | > 100 µM (inactive) | –
12 | COc1ccccc1-c1cc(O)c2cc3c(cc2n1)OCO3 | 31.9 µM (inactive) | 83.8 µM (inactive) | 18.7 µM (inactive) | 40.1 µM (inactive) | 28.6 µM (inactive) | 12.3 µM | 28.4 µM (inactive) | 35.2 µM (inactive) | 23.2 µM (inactive) | – | 38.5 µM (inactive) | – | 29.3 µM (inactive) | > 100 µM (inactive) | 80.9 µM (inactive)
13 | COc1cc(/C=C(\NC(=O)c2ccccc2)c2nc3ccc4c(c3[nH]2)C(=O)c2ccccc2C4=O)cc(OC)c1OC | 28.2 µM (inactive) | – | 0.687 µM (active) | > 100 µM (inactive) | 23.1 µM (inactive) | 35.7 µM | > 100 µM (inactive) | 10.7 µM (inactive) | 2.52 µM (inactive) | > 100 µM (inactive) | 2.92 µM (inactive) | 22.8 µM (inactive) | – | 29.2 µM (inactive) | > 100 µM (inactive)
14 | N#Cc1ccc(C2SCc3nc4ccccc4n32)cc1 (stereo not given) | > 100 µM (inactive) | 63.8 µM (inactive) | > 100 µM (inactive) | > 100 µM (inactive) | 44.8 µM (inactive) | > 100 µM | – | 79.4 µM (inactive) | 63.1 µM (inactive) | – | 49.8 µM (inactive) | 10.5 µM (inactive) | – | 81.7 µM (inactive) | > 100 µM (inactive)
15 | COC1CC(Br)(C#N)C1 (stereo not given) | > 100 µM (inactive) | – | – | > 100 µM (inactive) | > 100 µM (inactive) | > 100 µM | > 100 µM (inactive) | > 100 µM (inactive) | 52 µM (inactive) | – | > 100 µM (inactive) | > 100 µM (inactive) | > 100 µM (inactive) | > 100 µM (inactive) | –
16 | Clc1ccc(SC(/C=C/NNC2=NN=C(c3ccccc3)C(c3ccccc3)N2)c2ccccc2)cc1 (stereo not given) | 28.2 µM (inactive) | 21 µM (inactive) | 17.1 µM (inactive) | 19.7 µM (inactive) | 16.1 µM (inactive) | 26.9 µM | 15.1 µM (inactive) | 49.3 µM (inactive) | 11.2 µM (inactive) | 13.4 µM (inactive) | 6.64 µM (inactive) | 6.28 µM (inactive) | – | 36.5 µM (inactive) | 21.7 µM (inactive)
17 | Cc1c(C(=O)O)n(C)c(=O)n(C)c1=O | > 100 µM (inactive) | > 100 µM (inactive) | > 100 µM (inactive) | > 100 µM (inactive) | > 100 µM (inactive) | > 100 µM | > 100 µM (inactive) | > 100 µM (inactive) | > 100 µM (inactive) | > 100 µM (inactive) | – | > 100 µM (inactive) | – | > 100 µM (inactive) | > 100 µM (inactive)
18 | O=C(NO)c1ccc([N+](=O)[O-])cc1 | > 100 µM (inactive) | – | 26 µM (inactive) | 37.8 µM (inactive) | – | 64.3 µM | 48 µM (inactive) | 49.9 µM (inactive) | 25.8 µM (inactive) | 39.5 µM (inactive) | 27.2 µM (inactive) | 18.3 µM (inactive) | – | 37.3 µM (inactive) | 28.6 µM (inactive)
19 | COc1cc(C(C)O)c[n+](CCc2c[nH]c3ccccc23)c1 (stereo not given) | > 100 µM (inactive) | > 100 µM (inactive) | > 100 µM (inactive) | > 100 µM (inactive) | > 100 µM (inactive) | > 100 µM | 58.6 µM (inactive) | > 100 µM (inactive) | > 100 µM (inactive) | – | > 100 µM (inactive) | > 100 µM (inactive) | > 100 µM (inactive) | > 100 µM (inactive) | > 100 µM (inactive)
20 | CN(C)Cc1[nH]c2ccccc2c1C(=O)c1ccccc1 | > 100 µM (inactive) | > 100 µM (inactive) | > 100 µM (inactive) | 99.1 µM (inactive) | > 100 µM (inactive) | > 100 µM | > 100 µM (inactive) | > 100 µM (inactive) | > 100 µM (inactive) | > 100 µM (inactive) | 66.2 µM (inactive) | – | 88.3 µM (inactive) | > 100 µM (inactive) | > 100 µM (inactive)
21 | COC(=O)c1c2c(cc3c1CC1(Cc4cc5c(c(C(C)=O)c4C1)CCC5)C3)CCC2 (stereo not given) | 42.4 µM (inactive) | 40 µM (inactive) | > 100 µM (inactive) | > 100 µM (inactive) | 28.6 µM (inactive) | – | 40.3 µM (inactive) | 72.8 µM (inactive) | 38.2 µM (inactive) | – | – | 20.2 µM (inactive) | 43.7 µM (inactive) | > 100 µM (inactive) | 34.9 µM (inactive)
